In test [1] the test system is MSH2-deficient HEC59 cells. As to the kind of experiment: Cell viability (MTS) assay, MSH2-deficient cells. The test is classed as cell-based, human. To be noted: for IC50 / MSH2 dependence of cell death response (words): 24 h exposure; for Fold difference: IC50 MSH2-deficient vs MSH2-proficient cells, 24 h; for MSH2 dependence of cell death response (words): MSH2-deficient vs -proficient cells; for induction of cell death: MSH2-deficient cells. The protocol:
(§1) Cells proficient and deficient in MSH2 were exposed to increasing concentrations of the drugs and cell survival determined in an MTS assay. This assay is based on the mitochondrial activity of living cells that reduces the tetrazolium product (MTS) into a formazan product that can be spectrophotometrically analyzed at OD490.
(§2) Cell Viability assays. HEC59 cells and their isogenic counterpart with chromosome 2 transfer were grown in standard growth media of DMEM-F12+10% FBS. Cells were plated in 96 well plates at an appropriate concentration in 100 μl media and incubated overnight. Media was replaced with fresh media containing drug and allowed to incubate for 24 hrs at indicated concentrations. Untreated cells received fresh media containing 0.1% DMSO. One solution reagent (CellTiter 96(r) AQueous One Solution) is added to existing media (20 μl/well) and allowed to incubate 3-4 hrs. A plate reader was used to record the absorbance at 490 nm.
(§3) The CellTiter 96® AQueous One Solution Cell Proliferation Assay® is a colorimetric method for determining the number of viable cells in proliferation, cytotoxicity or chemosensitivity assays. The CellTiter 96® AQueous One Solution Reagent contains a tetrazolium compound [3-(4,5-dimethylthiazol-2-yl)-5-(3-carboxymethoxyphenyl)-2-(4-sulfophenyl)-2H-tetrazolium, inner salt; MTS] and an electron coupling reagent (phenazine ethosulfate; PES). PES has enhanced chemical stability, which allows it to be combined with MTS to form a stable solution. The quantity of formazan product as measured by the amount of 490 nm absorbance is directly proportional to the number of living cells in culture.
(§4) Dose-dependent response to nineteen increasing concentrations of the respective compound was determined, and analyzed for IC50 values using GraphPad Prism 4™. Each compound was analyzed in triplicates.

Test [2] has as its system MSH2-proficient HEC59 cells with chromosome 2 transfer (HEC59 chr.2). As to the kind of experiment: Cell viability (MTS) assay, MSH2-proficient cells. The format is cell-based, human. The following applies: for IC50: 24 h exposure; for induction of cell death: MSH2-proficient cells. The protocol:
as §1, §2, §3, §4

In test [3] the test system is MSH2-deficient HEC59 cells. To be noted: 48-72 hours after first exposure; cited from earlier work.
The subject of test [4] is A2780 cells. Briefly: MTS assay, platinum sensitive ovarian cancer cells. The format is cell-based. The following applies: for cell killing: 10 uM cisplatin, 20 uM rescinnamine, lisinopril. The protocol:
(§5) A2780 is a cisplatinum-sensitive ovarian cancer cell line, […] its isogenic, but cisplatinum-resistant counterpart. Shown are average and standard deviations of a minimum of 3 individual experiments. Results were normalized to the untreated control. FIG. 5: MTS assays of platinum sensitive (A2780) and resistant (A2780cis) cells in the presence of 10 uM cisplatinum and increasing concentrations of rescinnamine. FIG. 6: MTS assay of A2780 and A2780cis ovarian cancer cells, untreated, treated with 10 uM cisplatin, 20 uM rescinnamine and lisinopril.
On the technique in general: Tetrazolium assays rely on reduction of a dye to a coloured formazan, in cell work by metabolically active cells.

For test [5], the system named is A2780cis cells. Briefly: MTS assay, platinum resistant ovarian cancer cells. The test is classed as cell-based. To be noted: for cell killing: 10 uM cisplatin, 20 uM rescinnamine, lisinopril. The protocol: as §5
The subject of test [6] is RKO oxa cells. As to the kind of experiment: MTS assay, oxaliplatin insensitive colorectal cancer cells. The format is cell-based. From the text: FIG. 7: MTS assay of colorectal cancer cells sensitive (RKO) and insensitive (RKO oxa) to oxaliplatin, treated with oxaliplatin, rescinnamine and combination.
Test [7] deals with MSH2/6-dependent cell death. As to the kind of experiment: Caspase-3-dependent cell death assay. The test is classed as cell-based.
Where [8] appears, read: Homo sapiens, MTS, read-out: IC50 MSH2-deficient.
[9] abbreviates: Homo sapiens, MTS, read-out: IC50 MSH2-proficient.
Setting [10] is: Homo sapiens, read-out: IC50 in MSH2-proficient cells.
Setting [11] is: Homo sapiens, read-out: IC50 in MSH2-deficient cells.
[12] abbreviates: in the presence of 10 uM cisplatinum.

Like-named read-outs stand apart in the source and are kept apart here.

A word on the IC50: it is the concentration needed to halve the response being measured. Turning to `COC(=O)[C@H]1[C@H]2C[C@@H]3c4[nH]c5cc(OC)ccc5c4CCN3C[C@H]2C[C@@H](OC(=O)c2cc(OC)cc(OC)c2)[C@@H]1OC` [3,5-dimethoxy benzoyl, 3,5-Dimethoxybenzoyl reserpine], the results for the 50% inhibitory concentration (IC50) in test [1] (setting [8]) and in test [2] (setting [9]) were 36 µM and 38 µM, respectively. The compound further returned a Fold difference in test [1] of 0.95.
`N.N.[Cl][Pt][Cl]` [cisplatin]: the half-inhibitory concentration (IC50) in test [1] (MTS, read-out: IC50 MSH2-deficient) was determined as 75 µM; in test [2] (MTS, read-out: IC50 MSH2-proficient), 47 µM. Also, the Fold difference in test [1] turned out to be 1.6. Moreover, the “MSH2 dependence of cell death response (words)” value (“MSH2 dependence” for short) in test [1] was “only a weak difference”. Besides, in test [3], the “increase in resistance in MSH2-deficient cells, late response” value was “two- to four-fold increase in resistance”.
As to `COC(=O)[C@H]1[C@H]2C[C@@H]3c4[nH]c5cc(OC)ccc5c4CCN3C[C@H]2C[C@@H](OC(=O)c2ccc(OC)cc2)[C@@H]1OC` [4-methoxy benzoyl, 4-Methoxybenzoyl reserpine], the results for the IC50 in test [1] (setting [8]) and in test [2] (setting [9]) were 68 µM and 67 µM, respectively. In test [1], this compound displayed a Fold difference of 1.01.
As to `COC(=O)[C@H]1[C@H]2C[C@@H]3c4[nH]c5cc(OC)ccc5c4CCN3C[C@H]2C[C@@H](O)[C@@H]1OC` [Methyl Reserpate, Methyl reserpate], in test [1], the “induction of cell death” value was “only weakly induces cell death” and the “MSH2 dependence” value is recorded as “no preference for either cell line”. Moreover, the “induction of cell death” value in test [2] is recorded as “only weakly induces cell death”.
Consider `NCCCC[C@H](N[C@@H](CCc1ccccc1)C(=O)O)C(=O)N1CCC[C@H]1C(=O)O` [lisinopril], for which the “cell killing” value in test [4] and in test [5] was “does not show the same effect” throughout.
On to `COC(=O)[C@H]1[C@H]2C[C@@H]3c4[nH]c5cc(OC)ccc5c4CCN3C[C@H]2C[C@@H](OC(=O)c2cc(OC)c(OC)c(OC)c2)[C@@H]1OC` [reserpine], for which the figures for the IC50 in test [1] (setting [8]), in test [2] (setting [9]) and in test [2] (setting [10]) were 93 µM, 61 µM and 61 µM, respectively. Also, the Fold difference in test [1] was found to be 1.5. Moreover, the “MSH2 dependence” value in test [1] is listed as “robust MSH2-dependent cell death response”; in test [1] (listed as Reserpine), “significant increase in resistance”.
For the compound `COC(=O)[C@H]1[C@H]2C[C@@H]3c4[nH]c5cc(OC)ccc5c4CCN3C[C@H]2C[C@@H](OC(=O)c2ccc3c(c2)OCO3)[C@@H]1OC` [methylendioxy-benzoyl, 3,4-Methylenedioxy benzoyl reserpine], the 50% inhibitory concentration (IC50) came to 36 µM in test [1] (setting [8]), 36 µM in test [1] (setting [11]), 51 µM in test [2] (setting [9]) and 51 µM in test [2] (setting [10]). The Fold difference in test [1] was determined as 0.71. For the same compound, in test [1], the “MSH2 dependence” value is listed as “MSH2-deficient cells show a higher sensitivity”.
Take `COC(=O)[C@H]1[C@H]2C[C@@H]3c4[nH]c5cc(OC)ccc5c4CCN3C[C@H]2C[C@@H](OC(=O)/C=C/c2cc(OC)c(OC)c(OC)c2)[C@@H]1OC` [rescinnamine]: the half-inhibitory concentration (IC50) came out at 87 µM in test [1] (setting [8]), 39 µM in test [2] (setting [9]) and 39 µM in test [2] (setting [10]). This compound also showed a Fold difference in test [1] of 2.6. For the same compound, the “MSH2 dependence” value in test [1] is given as “robust MSH2-dependent cell death response”. Moreover, the “MSH2-dependent induction of cell death relative to reserpine” value in test [2] is recorded as “roughly 2 fold”. The “cell killing” value in test [4] is reported as “more effective in sensitive ovarian cancer cells than cisplatinum”; in test [5], “overcoming cisplatinum resistance”. For the same compound, the “cell death with increasing concentrations of rescinnamine” value in test [4] (setting [12]) is given as “concentration-dependent, significant cell death”; in test [5] (setting [12]) it was “concentration-dependent, significant cell death”. Moreover, the “overcoming oxaliplatin resistance” value in test [6] is listed as “overcomes oxaliplatin resistance, albeit not to the same extent as cisplatinum resistance”. In addition, the “induction of MSH2/6-dependent cell death” value in test [7] is “induces the targeted, MSH2/6-dependent cell death”.
As for `COC(=O)[C@H]1[C@H]2C[C@@H]3c4[nH]c5cc(OC)ccc5c4CCN3C[C@H]2C[C@@H](OC(=O)c2ccccc2)[C@@H]1OC` [MJG-6-41, Benzoyl resperine], the half-inhibitory concentration (IC50) in test [1] (setting [8]) came out at 110 µM; in test [2] (setting [9]), 132 µM. The compound also registered a Fold difference in test [1] of 0.83.
With Evodiamine, the “induction of cell death” value in test [1] and in test [2] was “no significant cytotoxic effect” in each case.
Consider `COC(=O)[C@H]1[C@H]2C[C@@H]3c4[nH]c5cc(OC)ccc5c4CCN3C[C@H]2C[C@@H](OC(=O)c2cccc(OC)c2)[C@@H]1OC` [3-methoxy benzoyl, 3-Methoxybenzoyl reserpine], for which the IC50 in test [1] (setting [8]) worked out at 83 µM; in test [2] (setting [9]) it was 88 µM. In test [1], this compound came in with a Fold difference of 0.94.
`COC(=O)[C@H]1[C@H]2C[C@@H]3c4[nH]c5cc(OC)ccc5c4CCN3C[C@H]2C[C@@H](OC(=O)c2ccc(OC)c(OC)c2)[C@@H]1OC` [3,4-dimethoxy benzoyl, 3,4-Dimethoxybenzoyl reserpine]: the concentration for half-maximal inhibition (IC50) in test [1] (setting [8]) was 85 µM; in test [1] (setting [11]), 85 µM; in test [2] (setting [9]), 66 µM; in test [2] (setting [10]), 66 µM. The Fold difference in test [1] is 1.3. For the same compound, the “MSH2 dependence” value in test [1] is on record as “significant MSH2-dependent cell death response”.
Take `COC(=O)[C@H]1[C@H]2C[C@@H]3c4[nH]c5ccccc5c4CCN3C[C@H]2C[C@@H](OC(=O)c2cc(OC)c(OC)c(OC)c2)[C@@H]1OC` [deserpidine]: the half-maximal inhibitory concentration (IC50) in test [1] (setting [8]) was found to be 59 µM; in test [1] (setting [11]), 56 µM; in test [2] (setting [9]), 48 µM; in test [2] (setting [10]) it was 49 µM. Besides, the Fold difference in test [1] is 1.2. The “MSH2 dependence” value in test [1] was “no significant specificity for the presence of MSH2”.
Take `COC(=O)[C@H]1[C@H]2C[C@@H]3c4[nH]c5cc(OC)ccc5c4CCN3C[C@H]2C[C@@H](OC(=O)/C=C/c2ccccc2)[C@@H]1OC` [cinnamoyl reserpine, Cinnamyl reserpine]: the IC50 in test [1] (setting [8]) came out at 150 µM; in test [1] (setting [11]), 150 µM; in test [2] (setting [9]) it was 130 µM; in test [2] (setting [10]) it was 130 µM. Besides, the Fold difference in test [1] was 1.2. Besides, the “MSH2 dependence” value in test [1] is on record as “independent of functional MSH2”.

The record behind these values is patent publication US8486957B2, “Chemotherapeutic for inducing an MSH2-dependent apoptotic pathway” (Wake Forest University Health Sciences, priority 2007, dated 2013).
